These results are taken from ChEMBL document CHEMBL2311518 (J Med Chem, 2013).

“And” between values parts separate entries of the source, which are not always exact repeats. Equal values may be shown once. The source made the active and inactive calls. The rule behind the calls is not given here.

In assay [1] the target is Neuronal acetylcholine receptor; alpha4/beta4 (Rattus norvegicus, UniProt P09483+P12392). Nature of the assay: biochemical.
Description: Displacement of [3H]epibatidine from rat recombinant alpha4beta4 nAChR expressed in HEK293 cells after 4 hrs by scintillation counting analysis
For assay [2], the target named is Neuronal acetylcholine receptor; alpha4/beta2 (Rattus norvegicus, UniProt P09483+P12390). In words: biochemical.
Chain of Neuronal acetylcholine receptor; alpha4/beta2 (Rattus norvegicus, UniProt P09483+P12390) (P09483 whole entry): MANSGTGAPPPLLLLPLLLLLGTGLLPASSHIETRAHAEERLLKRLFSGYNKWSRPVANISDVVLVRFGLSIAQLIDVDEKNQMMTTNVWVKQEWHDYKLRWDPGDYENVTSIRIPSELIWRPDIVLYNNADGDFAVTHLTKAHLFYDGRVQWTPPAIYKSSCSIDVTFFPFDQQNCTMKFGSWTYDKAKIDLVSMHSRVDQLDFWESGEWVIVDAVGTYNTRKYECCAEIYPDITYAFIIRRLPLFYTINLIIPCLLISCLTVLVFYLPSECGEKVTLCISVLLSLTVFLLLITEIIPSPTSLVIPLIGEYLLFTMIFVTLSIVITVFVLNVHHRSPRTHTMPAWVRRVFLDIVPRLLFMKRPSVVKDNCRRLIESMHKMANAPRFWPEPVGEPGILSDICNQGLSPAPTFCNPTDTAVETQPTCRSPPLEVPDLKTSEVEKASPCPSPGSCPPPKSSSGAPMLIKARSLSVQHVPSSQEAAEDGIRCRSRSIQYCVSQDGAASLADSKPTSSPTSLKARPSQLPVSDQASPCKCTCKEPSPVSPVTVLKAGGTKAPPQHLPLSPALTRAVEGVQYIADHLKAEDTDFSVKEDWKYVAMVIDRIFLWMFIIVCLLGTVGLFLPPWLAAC
Chain of Neuronal acetylcholine receptor; alpha4/beta2 (Rattus norvegicus, UniProt P09483+P12390) (P12390 whole entry): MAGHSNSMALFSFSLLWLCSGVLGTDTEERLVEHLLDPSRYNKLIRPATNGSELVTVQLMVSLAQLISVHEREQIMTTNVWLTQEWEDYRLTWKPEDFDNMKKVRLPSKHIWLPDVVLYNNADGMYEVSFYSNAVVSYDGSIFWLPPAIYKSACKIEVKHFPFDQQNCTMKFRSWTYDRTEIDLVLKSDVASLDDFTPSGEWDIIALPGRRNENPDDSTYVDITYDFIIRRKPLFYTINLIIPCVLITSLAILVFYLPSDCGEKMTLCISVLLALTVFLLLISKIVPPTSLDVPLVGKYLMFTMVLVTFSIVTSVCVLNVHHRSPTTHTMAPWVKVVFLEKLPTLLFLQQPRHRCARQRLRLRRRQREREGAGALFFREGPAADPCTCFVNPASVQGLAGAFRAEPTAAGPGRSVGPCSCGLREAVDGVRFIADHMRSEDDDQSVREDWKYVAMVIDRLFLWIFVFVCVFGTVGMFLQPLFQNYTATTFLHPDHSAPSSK
Description: Displacement of [3H]epibatidine from rat recombinant alpha4beta2 nAChR expressed in HEK293 cells after 4 hrs by scintillation counting analysis
The target of assay [3] is T1, Neuronal acetylcholine receptor; alpha3/beta4 (Rattus norvegicus, UniProt P04757+P12392). Nature of the assay: biochemical.
T1 sequence (P04757 whole entry): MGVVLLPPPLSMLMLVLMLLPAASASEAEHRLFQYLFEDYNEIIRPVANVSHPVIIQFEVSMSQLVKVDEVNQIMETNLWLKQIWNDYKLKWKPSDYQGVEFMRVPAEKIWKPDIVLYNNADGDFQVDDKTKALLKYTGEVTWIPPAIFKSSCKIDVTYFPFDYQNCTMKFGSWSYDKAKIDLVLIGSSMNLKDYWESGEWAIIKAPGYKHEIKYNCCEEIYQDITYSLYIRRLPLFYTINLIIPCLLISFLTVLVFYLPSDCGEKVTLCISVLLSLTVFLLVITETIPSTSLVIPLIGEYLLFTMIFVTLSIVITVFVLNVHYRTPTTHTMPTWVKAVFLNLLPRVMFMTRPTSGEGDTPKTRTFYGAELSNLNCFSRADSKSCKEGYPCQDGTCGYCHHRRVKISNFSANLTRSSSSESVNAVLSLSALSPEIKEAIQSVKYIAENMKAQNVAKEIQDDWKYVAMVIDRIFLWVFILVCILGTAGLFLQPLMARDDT
T1 sequence (P12392 whole entry): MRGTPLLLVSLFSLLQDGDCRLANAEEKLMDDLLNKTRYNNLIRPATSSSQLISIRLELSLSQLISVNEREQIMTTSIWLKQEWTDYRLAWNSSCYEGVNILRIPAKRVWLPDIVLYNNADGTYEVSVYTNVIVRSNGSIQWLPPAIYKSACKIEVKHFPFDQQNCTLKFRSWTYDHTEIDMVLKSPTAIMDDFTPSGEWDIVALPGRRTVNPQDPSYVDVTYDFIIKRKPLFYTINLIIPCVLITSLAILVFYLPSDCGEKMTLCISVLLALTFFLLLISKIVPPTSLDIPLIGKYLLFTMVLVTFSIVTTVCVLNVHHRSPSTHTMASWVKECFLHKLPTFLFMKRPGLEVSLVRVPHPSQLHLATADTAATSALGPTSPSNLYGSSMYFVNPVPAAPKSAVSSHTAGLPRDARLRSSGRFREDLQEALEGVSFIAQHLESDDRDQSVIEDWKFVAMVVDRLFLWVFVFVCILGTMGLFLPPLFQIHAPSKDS
Description: Displacement of [3H]epibatidine from rat recombinant alpha3beta4 nAChR expressed in HEK293 cells after 4 hrs by scintillation counting analysis
In assay [4] the target is Neuronal acetylcholine receptor subunit alpha-7 (Rattus norvegicus, UniProt Q05941). To be noted: tsa-201.
Chain of Neuronal acetylcholine receptor subunit alpha-7 (Q05941 23-502 limits assumed): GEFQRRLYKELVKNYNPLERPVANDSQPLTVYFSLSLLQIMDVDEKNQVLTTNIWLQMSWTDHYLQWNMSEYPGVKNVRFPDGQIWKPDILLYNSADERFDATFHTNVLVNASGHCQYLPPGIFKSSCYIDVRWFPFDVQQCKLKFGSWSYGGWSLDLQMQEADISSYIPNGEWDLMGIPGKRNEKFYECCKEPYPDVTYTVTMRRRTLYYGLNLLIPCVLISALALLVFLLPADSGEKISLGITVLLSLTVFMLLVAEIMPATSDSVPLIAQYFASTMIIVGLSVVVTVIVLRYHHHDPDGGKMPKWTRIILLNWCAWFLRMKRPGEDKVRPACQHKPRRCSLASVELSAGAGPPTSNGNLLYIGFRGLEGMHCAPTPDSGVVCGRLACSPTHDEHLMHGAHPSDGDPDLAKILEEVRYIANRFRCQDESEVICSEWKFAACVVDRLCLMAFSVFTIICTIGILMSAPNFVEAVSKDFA
Description: Displacement of [3H]MLA from rat nAChR alpha7 linked to ion channel portion of 5-HT3A receptor expressed in human tsA-201 cells after 2.5 hrs by scintillation counting analysis
Assay [5] addresses T2, Neuronal acetylcholine receptor; alpha4/beta2 (Homo sapiens, UniProt P17787+P43681).
Description: Partial agonist activity at human 2:3 alpha4beta2 nAChR expressed in Xenopus laevis oocytes after 1 min by two electrode voltage clamp technique
In assay [6] the target is T1, Neuronal acetylcholine receptor; alpha3/beta4.
Description: Agonist activity at rat alpha3beta4 nAChR expressed in HEK293 cells after 30 mins by FLIPR membrane potential blue assay
The target in assay [7] is Acetylcholine-binding protein (Lymnaea stagnalis, UniProt P58154). To be noted: hek293.
Chain of Acetylcholine-binding protein (P58154 20-229 limits assumed): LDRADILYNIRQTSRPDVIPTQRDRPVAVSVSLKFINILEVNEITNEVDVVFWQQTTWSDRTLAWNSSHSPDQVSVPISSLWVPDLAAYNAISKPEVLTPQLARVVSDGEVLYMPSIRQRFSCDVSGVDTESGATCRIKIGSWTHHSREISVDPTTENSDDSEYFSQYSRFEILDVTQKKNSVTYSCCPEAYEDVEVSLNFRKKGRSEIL
Description: Displacement of [3H]epibatidine from Lymnaea stagnalis AChBP linked to ion channel portion of 5-HT3A receptor expressed in HEK293 cells after 4 hrs by scintillation counting analysis
Assay [8] deals with T2, Neuronal acetylcholine receptor; alpha4/beta2. The source holds these as a separate data set.
Description: Agonist activity at human 3:2 alpha4beta2 nAChR expressed in Xenopus laevis oocytes after 1 min by two electrode voltage clamp technique
Assay [9] has as its target Neuronal acetylcholine receptor; alpha3/beta4 (Rattus norvegicus) (UniProt P04757+P12392). In words: Modulation of rat alpha3beta4 nAChR expressed in HEK293 cells up to 1000 uM after 30 mins by FLIPR membrane potential blue assay. The assay is classed as cell-based.

T2 sequence (P17787 whole entry): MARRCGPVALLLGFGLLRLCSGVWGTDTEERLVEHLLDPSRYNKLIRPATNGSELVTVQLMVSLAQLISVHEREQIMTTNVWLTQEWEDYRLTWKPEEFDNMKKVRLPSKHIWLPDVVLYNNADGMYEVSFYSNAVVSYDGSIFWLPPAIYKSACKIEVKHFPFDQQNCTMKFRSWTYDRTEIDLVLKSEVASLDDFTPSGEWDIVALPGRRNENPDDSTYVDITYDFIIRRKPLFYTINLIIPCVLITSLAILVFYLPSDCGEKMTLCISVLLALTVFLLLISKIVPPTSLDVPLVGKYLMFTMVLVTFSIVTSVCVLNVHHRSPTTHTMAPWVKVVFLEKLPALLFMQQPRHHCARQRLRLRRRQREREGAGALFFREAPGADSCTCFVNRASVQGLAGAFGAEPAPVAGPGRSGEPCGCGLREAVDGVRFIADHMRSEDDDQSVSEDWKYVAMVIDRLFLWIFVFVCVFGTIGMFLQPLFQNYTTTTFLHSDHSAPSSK
T2 sequence (P43681 whole entry): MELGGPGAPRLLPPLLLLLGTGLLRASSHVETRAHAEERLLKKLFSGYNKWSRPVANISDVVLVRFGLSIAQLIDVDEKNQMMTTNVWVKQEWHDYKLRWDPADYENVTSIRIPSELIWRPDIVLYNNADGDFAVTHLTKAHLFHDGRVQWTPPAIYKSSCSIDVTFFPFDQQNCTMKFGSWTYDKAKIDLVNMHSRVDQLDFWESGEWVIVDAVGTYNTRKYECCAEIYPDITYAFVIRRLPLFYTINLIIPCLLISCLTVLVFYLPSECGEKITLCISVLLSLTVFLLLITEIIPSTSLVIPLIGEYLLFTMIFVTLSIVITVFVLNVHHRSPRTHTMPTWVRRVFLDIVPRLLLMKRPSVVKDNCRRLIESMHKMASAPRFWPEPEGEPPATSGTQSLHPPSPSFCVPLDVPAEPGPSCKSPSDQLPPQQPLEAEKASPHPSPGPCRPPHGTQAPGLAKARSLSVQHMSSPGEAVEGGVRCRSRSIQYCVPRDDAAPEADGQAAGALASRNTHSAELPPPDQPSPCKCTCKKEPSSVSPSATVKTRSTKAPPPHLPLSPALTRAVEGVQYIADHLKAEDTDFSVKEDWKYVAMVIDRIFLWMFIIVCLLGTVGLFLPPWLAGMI
Chain of Neuronal acetylcholine receptor; alpha4/beta4 (P09483 whole entry): as the sequence (P09483 whole entry) above
Chain of Neuronal acetylcholine receptor; alpha4/beta4 (P12392 whole entry): as the sequence (P12392 whole entry) above

Regarding `C[C@H](CCOn1cccn1)N(C)C`, the Ki (commonly a measure of affinity in units of concentration, obtained from inhibition or displacement) in assay [1] came out at 11 µM; in assay [2], 0.018 µM; in [3] it was 8.1 µM.
The like results for `C[C@H](CCOc1cnccn1)N(C)C` were, in that order, 8.3 µM, 0.24 µM and 42 µM.
Regarding `C[C@H](CCOC(=O)N(C)C)N(C)C`, the Ki in [1] was 0.15 µM; in assay [4] it was over 1000 µM; in assay [2] it was 0.02 µM; in assay [7] it was 0.079 µM; in [3], 0.42 µM. The pKi (in general, the negative decadic logarithm of the Ki, by convention in mol/L) is under 3 in assay [4] and 7.1 in assay [7]. Also, the EC50 (commonly the concentration needed to bring the measured effect to its halfway point) is 0.72 µM in [5]; 11 µM in assay [6]; 15.8 µM and 14 µM in assay [8].
Turning to `Cc1cn(C)c(OCC[C@@H](C)N(C)C)n1`, the inhibition constant (Ki) in assay [1] was 50 µM; in [4], over 1000 µM; in assay [2], 0.28 µM; in assay [7], 1.5 µM; in assay [3], 24 µM. Besides, the negative-log Ki (pKi) in [4] was under 3; in [7], 5.82. Further, the 50% effective concentration (EC50) amounted to 19 µM in [5] and 34 µM in assay [8]. In [9], the result was inactive.
Turning to `C[C@H](CCOc1nccs1)N(C)C`, the Ki in assay [1] amounted to 1.8 µM; in assay [2], 0.013 µM; in assay [3], 4.7 µM.
As to `C[C@H](CCOc1nc(Br)cn1C)N(C)C`, the Ki in assay [1] turned out to be 50 µM; in assay [4] it was 1000 µM; in [2], 0.12 µM; in assay [3] it was 300 µM. The same molecule returned a pKi in assay [4] of 3.
Take `C[C@H](CCOc1cccnc1)N(C)C`: the inhibition constant Ki in assay [1] amounted to 8.3 µM; in assay [2], 0.03 µM; in [3], 4.9 µM.
